Data on 88 compounds can be found in a melting point compilation (Tetko et al.; mined from patent text by program, amines drawn as free bases though some values may be those of a salt).

`Cc1ccc(S(N)(=O)=O)cc1C(O)CCl` (stereo not drawn) registered a melting point of 126 °C. With `O=C(c1ccc(Sc2ccccc2)cc1)c1ccc(O)cc1O` the figure was 117 to 118 °C; with `COc1ccc(-c2cnc(N3CCc4c([nH]c5ccccc45)C3c3ccc4c(c3)OCO4)nc2)cc1` (stereo not drawn), 200 to 202 °C; with `CN1C(=O)C(NC(=O)Nc2cccc(F)c2)N=C(c2ccccc2)c2ccccc21` (stereo not drawn), 252 to 254 °C. Compound `CCN(CC)CCNC(=O)c1ccc(-c2n[nH]c3c2Cc2ccccc2-3)cc1` displayed a melting point of 172 to 174 °C.

With `Cc1nc(-c2ccc(C(F)(F)F)cc2)sc1CSc1ccc(OCC(=O)O)cc1`, the melting point was 190 °C.

`O=c1oc(Oc2ccc(Cl)cc2)nn1-c1ccccc1Cl` gave a melting point of 110 °C.

Compound `CCCNC(=O)C(C)NC(=O)C(C)NC(=O)C(C)NC(=O)OCc1ccccc1` (stereo not drawn) had a melting point of 268 to 269 °C. With `N#Cc1c(Cl)n(C2OC(CF)C(O)C2O)c2cc(Cl)c(Cl)cc12` (stereo not drawn) the figure was 246 to 247 °C; with `COc1cc(OC)c2c(=O)cc(C(C)(C)C(N)=O)oc2c1`, 217 to 219 °C. As for `O=C(NC1CCCCC1)Oc1ccc(N=C=S)cc1`, the figure is 170 to 173 °C; as for `COc1cc(C)c(C(=O)c2c(Cl)cccc2Cl)cc1Br`, 159 °C; as for `COC(=O)N1CSC(=Cc2cc(C(C)(C)C)c(O)c(C(C)(C)C)c2)C1=O`, 165 to 168 °C. As for `CC(C)(C)c1cc(C[C@@H]2SCNC2=O)cc(C(C)(C)C)c1O`, the figure is 149 to 150 °C; as for `CCS(=O)(=O)c1nsc(NC(=O)NC)c1C#N`, 258 °C. As for `N#CC(=Cc1ccncc1)c1cccnc1`, the melting point was 150 to 152 °C. As for `COc1cc(CNc2n[nH]c3ncnc(Nc4cccc(Cl)c4)c23)cc(OC)c1`, the figure is 208 to 209 °C.

As for `COc1ccc(Nc2ccc(CO)cc2)cc1`, the melting point amounted to 110 °C. As to `Cc1cc(=O)n(C2CCCCC2)c(=O)n1C`, the melting point fell in the range of 135 to 137 °C. With `CC(C)c1nc(-c2c(F)c(F)cc(F)c2F)cc(-c2ccc(F)cc2)c1C=C(Br)Br` the figure was 77 °C; with `COC(=O)c1cccc(-c2cccc(Oc3cccc(Cl)c3Cl)n2)c1`, 105 to 106 °C.

Turning to `COc1ccc(NC(=O)NC2C(=O)Nc3ccccc3N(CCC(C)C)C2=O)cc1` (stereo not drawn), the melting point lay in the range of 150 to 152 °C. As for `CCn1nc(Cc2c(Cl)cncc2Cl)c2ccc(OC)cc2c1=O`, the figure is 150 to 151 °C; as for `Nc1ncc2c(n1)-c1ccccc1C(c1ccc(Cl)c(Cl)c1)C2` (stereo not drawn), 159 to 160 °C. `C=C1c2cc(C(=O)O)ccc2CCC1n1ccnc1` (stereo not drawn) registered a melting point of 227 to 229 °C. As for `O=C(Nc1ncc(C(F)(F)F)o1)C1c2ccccc2Oc2cc(F)ccc21` (racemic), the figure is 250 °C; as for `CCOC(=O)c1cn(CC)c2nc(SC)ncc2c1=O`, 148 °C; as for `COc1cc(/C=C\c2ccc([N+](=O)[O-])cc2)cc(OC)c1OC`, 140 to 142 °C.

Compound `BrCc1noc2cc3ccccc3cc12` returned a melting point of 111 to 113 °C. As for `O=C(O)Cc1cc(C(=O)c2ccc(F)cc2)ccc1O`, the melting point is 218 °C.

`CC(C)(C)OC(=O)NCCNC(=O)c1cocn1` yielded a melting point of 148 to 150 °C.

Compound `CCOC(=O)C(=O)Cc1ccc(C#N)cc1[N+](=O)[O-]` registered a melting point of 118 °C. The compound `O=C(CCC(O)c1ccc(CCNS(=O)(=O)c2ccc(Cl)cc2)cc1)Nc1nnn[nH]1` (stereo not drawn) gave a melting point of 194 to 196 °C.

For `COc1cc(N)c2nccc(C)c2c1OCCCCCc1ccccc1`, the melting point lay within 65 to 66 °C. As for `N#Cc1ccc(-c2cn(-c3ccc(I)cc3)c(S)n2)cc1`, the figure is 285 to 290 °C; as for `CC(C)CC1(C(C)C(=O)O)CCN(CCc2ccccc2)C1=O` (stereo not drawn), 94 to 95 °C; as for `c1ccc(N2CCN3C(NN4CCOCC4)=Nc4ccccc4N3CC2)cc1`, 142 to 144 °C. In turn, `COc1cc(OC)cc(N2Cc3cnc(SC)nc3N=C2N)c1` showed a melting point of 198 to 204 °C. As for `Cn1ncnc1COc1nc2c(cc1-c1ccc(F)cc1)nnn2-c1ccccc1F`, the figure is 142 to 145 °C; as for `CC(C)OC(=O)Cn1c(=O)n(C)c(=O)n(-c2cc(N=c3sc(=S)n4n3CCC=C4)c(F)cc2Cl)c1=O`, 105 to 113 °C; as for `COc1ccc(C(O)c2ccc(C(=O)N(C3CCCC3)C3CCCC3)cc2)cc1OC` (stereo not drawn), 137 to 138 °C. With `Nc1cc[nH]c(=O)c1Br` the figure was 255 to 258 °C; with `CN(c1ccccc1)N1C(=O)C(Cl)=C(c2ccc(Cl)cc2)C1=O`, 155 to 157 °C. As for `OC1CCC(c2ccc(OCCCCCCCCCCCBr)cc2)CC1` (stereo not drawn), the figure is 100 to 101 °C. In turn, `Cc1cc(-n2ccnc2)c2cccc(OCc3c(Cl)ccc(S(=O)(=O)N4CCC[C@H]4C(=O)NCC4CCN(Cc5ccncc5)CC4)c3Cl)c2n1` had a melting point of 113 °C. Compound `COCCN(C)Cc1c(-c2ccc(N)cc2)sc2c1c(=O)n(-c1ccc3c(c1)OCO3)c(=O)n2Cc1c(F)cccc1F` had a melting point of 200 to 202 °C.

Regarding `CCOP(=O)(CCc1ccnc(-c2nc(=O)c3ccccc3s2)c1)OCC`, the melting point fell in the range of 102 to 103 °C. With `CC(C)(C)OC(=O)Nc1ccc(CCO)cc1` the figure was 104 to 105 °C.

In turn, `CCOC(=O)Nc1ccc2oc(-c3ccccc3)cc2c1` displayed a melting point of 164 °C. With `COc1ccc(S(=O)(=O)Nc2ccc(Cl)cc2Cc2c(F)cccc2F)cc1OC` the figure was 144 °C. With `O=C1CCC(O)C(C(c2ccccc2)c2ccccc2)N1` (stereo not drawn) the figure was 208 °C.

Compound `O=C(NC1CCOCC1)c1ccc2nonc2c1` yielded a melting point of 204 to 205 °C.

Turning to `C[C@H]1[C@@H](O)CC(=O)N1c1ccc(C#N)c(Cl)c1`, the melting point lay within 161 to 162 °C.

As for `Cc1ccc(N2CCC3CCc4cnccc4C3=N2)cc1` (stereo not drawn), the melting point lay within 158 to 159 °C. As for `COc1ccccc1N1CCN(CCCOc2ccc(-c3nnco3)cc2)CC1`, the figure is 139 to 140 °C. As for `Cc1ccccc1C1CCN(C(=O)CCC(=O)c2ccc3c(c2)CCN(C(=O)C(F)(F)F)CC3)CC1`, the figure is 130 to 131 °C; as for `Cc1ccc2nc(SCCN(C)C)[nH]c2c1`, 103 °C. With `CN(CCN(O)C(N)=O)Cc1cccc(Oc2ccc(Cl)cc2)c1` the figure was 111 to 113 °C. With `O=C1NC=N[C@H]2CCCC[C@@H]12` (relative stereo), the melting point lay within 133 to 134 °C.

`CCCCCCCCOc1ncc(-c2ccc(OC(=O)[C@H]3CCCO3)cc2)cn1` returned a melting point of 75 °C. As to `CCS(=O)c1cn(C)cc(-c2cccc(C(F)(F)F)c2)c1=O` (stereo not drawn), the melting point lay in the range of 146 to 148 °C. As for `COc1cccc(CCC(=O)O)c1OCCCc1cn(-c2ccc(C(F)(F)F)cn2)nc1C(C)C`, the figure is 112 to 113 °C; as for `O=C(CC(O)(c1cc(Cl)cc(Cl)c1)C(F)(F)F)c1ccc(-n2ccnc2)cc1` (stereo not drawn), 161 to 162 °C; as for `CC1(C)COc2ccc(OS(C)(=O)=O)cc21`, 75 to 77 °C.

For the compound `C=C(C)[C@@H]1CC[C@]2(C(=O)O)CC[C@]3(C)[C@H](CC[C@@H]4[C@@]5(C)CC[C@H](OC(=O)[C@H]6C[C@@H](C(=O)O)C6(C)C)C(C)(C)[C@@H]5CC[C@]43C)[C@@H]12`, the melting point is 308 to 310 °C. With `CCOC(=O)c1cc(-c2ccccc2)oc1-c1ccc(OC)c(OC)c1` the figure was 68 °C. On to `CC=C1c2ccccc2CC(NO)c2ccccc21` (stereo not drawn), for which the melting point lay within 121 to 124 °C. As for `CC12CCC(=O)NC1=CCc1ccccc12` (stereo not drawn), the figure is 123 to 124 °C. With `COc1cccc(CNC(=O)c2nc3cccc(OCCN4CCC(C(=O)O)CC4)c3c(=O)[nH]2)c1` the figure was 127 to 130 °C; with `CN(CCNc1ncc(Cc2ccc(Cl)cc2)c(=O)[nH]1)c1ccccn1`, 172 to 174 °C.

With `Cc1nc(NC(=O)c2cnn3c(C(F)(F)F)cc(-c4ccc(C(F)(F)F)c(OCC(F)(F)F)c4)nc23)sc1S(=O)(=O)NC(C)(C)CO`, the melting point was 275 °C. In the case of `CC1c2onc(-c3ccc(Cl)cc3)c2CCC1(C)C(=O)O` (stereo not drawn), the melting point was in the range of 165 to 170 °C. As for `COc1ccc(S(=O)(=O)Nc2ccccc2NC(=O)c2ccccn2)cc1`, the figure is 174 to 175 °C; as for `O=C(N[C@H]1CCCNC1=O)c1cccc(C(F)(F)F)c1`, 148 to 150 °C.

Regarding `CCOC(=O)/C=C/c1ccc(OCC(C)=O)cc1Oc1ncc(C(F)(F)F)cc1Cl`, the melting point lay within 167 to 168 °C. With `Cc1nc(N2CCN(Cc3ccccc3)C2=O)sc1C(=O)NCc1ccc(F)c(F)c1` the figure was 152 to 153 °C; with `O=C1CC(c2ccccc2OCc2ccccc2)=Nc2ccc(N3CCOCC3)cc21`, 281 to 283 °C.

Compound `O=C(NCCO)NCCCCC1CCSS1` (stereo not drawn) came in with a melting point of 50 to 65 °C. As for `CCOC(=O)C1CCC2(C)C(=CC(O)C3C2CCC2(C)C(O)CCC32)C1` (stereo not drawn), the figure is 170 to 171 °C; as for `COC(=O)Nc1ccccc1C=Cc1ccccc1Cl`, 135 to 137 °C. As for `OCCN(Cc1ccccc1)CC1(O)CCN(CCCc2c[nH]c3ccc(-n4cnnc4)cc23)CC1`, the figure is 75 to 78 °C; as for `CCCN1c2nc(-c3cn[nH]c3)ccc2NC(=O)c2cccnc21`, 291 to 292 °C. With `CC(=O)NC[C@H]1CN(c2ccc(N3CCC(=C(C#N)C#N)CC3)c(F)c2)C(=O)O1` the figure was 158 to 160 °C.

As to `COC(=O)c1ccc(-c2ccc3cc(OCc4ccc(F)cc4)c(C45CC6CC(CC(C6)C4)C5)cc3c2)cc1O`, the melting point lay in the range of 189 to 191 °C. Turning to `O=C1CN2Cc3cc(OCCCC(=O)N(CCCCCCOC(=O)c4ccccc4)C4CCCCC4)ccc3N=C2N1`, the melting point was in the range of 94 to 95 °C. On to `O=C(O)C1=Cc2cc(Cl)c(Cl)cc2OC1C(F)(F)F` (stereo not drawn), for which the melting point fell in the range of 196 to 198 °C. Compound `CN(Cc1cccc2c1CN(C1CCC(=O)NC1=O)C2=O)C(=O)Nc1cccc(F)c1` (stereo not drawn) registered a melting point of 218 to 220 °C. With `COC1CCN(c2nnc(-c3ccc(C)cc3)c(-c3ccc(C)cc3)n2)CC1` the figure was 120 to 121 °C.

The melting point is the temperature of the solid-liquid transition.
